Data: patent publication US20230024302A1, “2,3,5-TRISUBSTITUTED PYRAZOLO[1,5-A]PYRIMIDINE COMPOUNDS” (Arcus Biosciences, Inc., priority 2019, published 2023)
Like-named read-outs stand apart in the source and are kept apart here.

How the values were obtained:
PI3Kγ = target: T1, PI3Kγ (Homo sapiens, UniProt P48736); experiment: PI3Kγ cellular assay in THP-1 cells (AKT pS473 AlphaLISA); type: cell-based
T1 construct: host or cells: THP-1
Summary of the method: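 Endogenous AKT S473 phosphorylation, detected by AlphaLISA in lysates, serves as the PI3Kγ activity read-out in stimulated, serum-starved THP-1 cells (1.8×10^5/well).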

PI3Kγ (p120γ) = target: T2, PI3Kγ (p120γ) (Homo sapiens, UniProt P48736); experiment: Inhibition of PI3K kinase activity (ADP Glo), PI3Kγ; conditions: read-out: biochemical potency (PI3Kγ IC50)
T2 construct: purchased Promega V1761
Summary of the method: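 IC50 values come from a 4-parameter nonlinear fit of ADP-Glo luminescence, which measures ADP produced as PIP2 is phosphorylated to PIP3. The p120γ enzyme (2× stock 8 nM) sat with compound 1 h at rt before substrate (2× stocks: 50 μM ATP, 0.1 mg/ml PIP2) was added. Phosphorylation then proceeded 60 min at rt.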

[1] = AKT pS473, read-out: cellular potency (PI3Kγ IC50)
[2] = Table 6, rhMCP-1 stimulated AKT pS473, read-out: cellular potency (PI3Kγ IC50)

T1 sequence (P48736 whole entry): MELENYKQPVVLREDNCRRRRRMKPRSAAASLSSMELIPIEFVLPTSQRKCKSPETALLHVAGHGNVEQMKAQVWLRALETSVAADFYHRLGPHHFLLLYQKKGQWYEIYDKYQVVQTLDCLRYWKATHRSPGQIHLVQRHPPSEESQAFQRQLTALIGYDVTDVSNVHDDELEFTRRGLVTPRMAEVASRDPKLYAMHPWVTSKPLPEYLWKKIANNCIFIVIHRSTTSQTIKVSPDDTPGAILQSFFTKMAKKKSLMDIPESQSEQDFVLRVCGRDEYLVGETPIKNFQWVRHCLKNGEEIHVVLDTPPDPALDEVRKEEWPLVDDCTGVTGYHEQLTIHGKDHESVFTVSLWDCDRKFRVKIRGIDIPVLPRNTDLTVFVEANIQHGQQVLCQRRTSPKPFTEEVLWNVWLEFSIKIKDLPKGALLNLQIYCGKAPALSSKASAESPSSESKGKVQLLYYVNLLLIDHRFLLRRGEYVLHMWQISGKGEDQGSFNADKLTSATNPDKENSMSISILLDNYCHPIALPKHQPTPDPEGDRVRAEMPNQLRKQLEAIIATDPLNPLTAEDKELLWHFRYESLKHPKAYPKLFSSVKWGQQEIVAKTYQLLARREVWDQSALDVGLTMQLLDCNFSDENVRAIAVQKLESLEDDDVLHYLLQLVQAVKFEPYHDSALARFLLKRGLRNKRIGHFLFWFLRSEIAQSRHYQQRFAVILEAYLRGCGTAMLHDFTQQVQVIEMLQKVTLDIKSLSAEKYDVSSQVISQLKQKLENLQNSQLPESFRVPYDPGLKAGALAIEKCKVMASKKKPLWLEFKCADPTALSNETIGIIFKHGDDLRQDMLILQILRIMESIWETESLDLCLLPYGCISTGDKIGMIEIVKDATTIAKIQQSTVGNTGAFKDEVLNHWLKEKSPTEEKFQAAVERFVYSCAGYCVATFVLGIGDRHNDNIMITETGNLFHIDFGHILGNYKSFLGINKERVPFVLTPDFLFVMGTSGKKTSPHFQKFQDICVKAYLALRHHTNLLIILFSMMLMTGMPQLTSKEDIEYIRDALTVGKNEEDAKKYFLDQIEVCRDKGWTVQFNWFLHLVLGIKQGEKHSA
T2 sequence (P48736 whole entry): as above

Row | Structure (SMILES) | IC50 (PI3Kγ; [1]) [nM] | IC50 (PI3Kγ (p120γ)) [nM] | IC50 (PI3Kγ; [2]) [nM] | IC50 (PI3Kγ (p120γ); Table 6, p120γ) [nM]
1 | CC(C)[C@H](CO)NC(=O)c1c(N)nn2ccc(-c3cc4c(c(NS(C)(=O)=O)c3)C(=O)N([C@@H](C3CC3)C(F)(F)F)C4)nc12 [Example 400] | 100 to 1000 | < 100 | – | –
2 | C[C@H](N1Cc2cc(-c3ccn4nc(N)c(C(=O)Nc5cccnc5)c4n3)cc(NS(C)(=O)=O)c2C1=O)C(F)(F)F [Example 401] | 100 to 1000 | < 100 | – | –
3 | CC(C)[C@H](N1Cc2cc(-c3ccn4nc(N)c(C(=O)NC5CC5)c4n3)cc(NS(C)(=O)=O)c2C1=O)C(F)(F)F [Example 402] | 100 to 1000 | < 100 | – | –
4 | C[C@H](N1Cc2cc(-c3ccn4nc(N)c(C(=O)Nc5ccccc5)c4n3)cc(NS(C)(=O)=O)c2C1=O)C(F)(F)F [Example 403] | 100 to 1000 | < 100 | – | –
5 | C[C@@H](C1CC1)N1Cc2cc(-c3ccn4nc(N)c(C(=O)N[C@H]5CNC[C@H]5O)c4n3)cc(OC(F)(F)F)c2C1=O [Example 417] | – | – | > 1000 | < 100
6 | C[C@@H](C1CC1)N1Cc2cc(-c3ccn4nc(N)c(C(=O)N[C@@H]5CNC[C@H]5O)c4n3)cc(OC(F)(F)F)c2C1=O [Example 418] | – | – | > 1000 | < 100
7 | C[C@@H](C1CC1)N1Cc2cc(-c3ccn4nc(N)c(C(=O)N[C@H]5CNC[C@@H]5O)c4n3)cc(OC(F)(F)F)c2C1=O [Example 424] | – | – | > 1000 | < 100
8 | C[C@@H](C1CC1)N1Cc2cc(-c3ccn4nc(N)c(C(=O)Nc5ccccc5C(C)(C)O)c4n3)cc(OC(F)(F)F)c2C1=O [Example 425] | – | – | > 1000 | < 100
9 | C[C@@H](C1CC1)N1Cc2cc(-c3ccn4nc(N)c(C(=O)Nc5ccccc5)c4n3)cc(OC(F)(F)F)c2C1=O [Example 427] | – | – | > 1000 | < 100
10 | C[C@@H](C1CC1)N1Cc2cc(-c3ccn4nc(N)c(C(=O)Nc5ccnc(C(F)(F)F)c5)c4n3)cc(OC(F)(F)F)c2C1=O [Example 428] | – | – | > 1000 | < 100
11 | C[C@@H](C1CC1)N1Cc2cc(-c3ccn4nc(N)c(C(=O)N[C@H]5CCNC5=O)c4n3)cc(O[C@@H]3CCOC3)c2C1=O [Example 441] | – | – | > 1000 | < 100
12 | C[C@@H](C1CC1)N1Cc2cc(-c3ccn4nc(N)c(C(=O)NC5CC5)c4n3)cc(O[C@H](C)C(F)(F)F)c2C1=O [Example 442] | – | – | 100 to 1000 | < 100
13 | C[C@@H](C1CC1)N1Cc2cc(-c3ccn4nc(N)c(C(=O)N[C@@H]5CNC(=O)C5)c4n3)cc(O[C@@H]3CCOC3)c2C1=O [Example 443] | – | – | > 1000 | < 100
14 | C[C@@H](C1CC1)N1Cc2cc(-c3ccn4nc(N)c(C(=O)N[C@H]5C[C@](C)(O)C5)c4n3)cc(S(C)(=O)=O)c2C1=O [Example 444] | – | – | 100 to 1000 | < 100
15 | C[C@@H](C1CC1)N1Cc2cc(-c3ccn4nc(N)c(C(=O)N[C@H]5C[C@H](O)C5)c4n3)cc(S(C)(=O)=O)c2C1=O [Example 445] | – | – | 100 to 1000 | < 100
16 | CC(C)NS(=O)(=O)c1cc(-c2ccn3nc(N)c(C(=O)NC4CC4)c3n2)cc2c1C(=O)N([C@@H](C)C1CC1)C2 [Example 446] | – | – | 100 to 1000 | < 100
17 | C[C@@H](C1CC1)N1Cc2cc(-c3ccn4nc(N)c(C(=O)NC5CC5)c4n3)cc(S(C)(=N)=O)c2C1=O (some centres unmarked) [Example 447] | – | – | 100 to 1000 | < 100
18 | C[C@@H](C1CC1)N1Cc2cc(-c3ccn4nc(N)c(C(=O)N[C@H]5CC[C@@](C)(O)CC5)c4n3)cc(S(C)(=N)=O)c2C1=O (some centres unmarked) [Example 448] | – | – | 100 to 1000 | < 100
19 | CC[C@H](N1Cc2cc(-c3ccn4nc(N)c(C(=O)NC5CC5)c4n3)cc(Cl)c2C1=O)C(F)(F)F [Example 449] | – | – | 100 to 1000 | < 100
20 | CCc1cc(-c2ccn3nc(N)c(C(=O)NC4CC4)c3n2)cc2c1C(=O)N([C@@H](C)C1CC1)C2 [Example 450] | – | – | 100 to 1000 | < 100
21 | C[C@@H](C1CC1)N1Cc2cc(-c3ccn4nc(N)c(C(=O)NC5CC5)c4n3)cc(C#N)c2C1=O [Example 451] | – | – | 100 to 1000 | < 100
22 | C[C@@H](C1CC1)N1Cc2cc(-c3ccn4nc(N)c(C(=O)Nc5cccnc5)c4n3)cc(C3CC3)c2C1=O [Example 452] | – | – | 100 to 1000 | < 100

Second part, the molecule after the results:

Row | IC50 (PI3Kγ; [1]) [nM] | IC50 (PI3Kγ (p120γ)) [nM] | IC50 (PI3Kγ; [2]) [nM] | IC50 (PI3Kγ (p120γ); Table 6, p120γ) [nM] | Structure (SMILES)
23 | – | – | 100 to 1000 | < 100 | C[C@H](CO)NC(=O)c1c(N)nn2ccc(-c3cc4c(c(N(C)S(C)(=O)=O)c3)C(=O)N([C@@H](C)C3CC3)C4)nc12 [Example 408]
24 | – | – | 100 to 1000 | < 100 | C[C@@H](C1CC1)N1Cc2cc(-c3ccn4nc(N)c(C(=O)NC5CC5)c4n3)cc(NS(=O)(=O)N3CCOCC3)c2C1=O [Example 409]
25 | – | – | < 100 | < 100 | C[C@@H](C1CC1)N1Cc2cc(-c3ccn4nc(N)c(C(=O)NC5CC5)c4n3)cc(NS(=O)(=O)N(C)C)c2C1=O [Example 410]
26 | – | – | 100 to 1000 | < 100 | C[C@@H](C1CC1)N1Cc2cc(-c3ccn4nc(N)c(C(=O)N[C@H]5CC[C@H](C(=O)O)CC5)c4n3)cc(OC(F)(F)F)c2C1=O [Example 411]
27 | – | – | 100 to 1000 | < 100 | C[C@@H](C1CC1)N1Cc2cc(-c3ccn4nc(N)c(C(=O)N[C@@H]5CCC(=O)NC5)c4n3)cc(OC(F)(F)F)c2C1=O [Example 412]
28 | – | – | 100 to 1000 | < 100 | C[C@@H](C1CC1)N1Cc2cc(-c3ccn4nc(N)c(C(=O)N[C@H]5CCC(=O)NC5)c4n3)cc(OC(F)(F)F)c2C1=O [Example 413]
29 | – | – | 100 to 1000 | < 100 | C[C@@H](C1CC1)N1Cc2cc(-c3ccn4nc(N)c(C(=O)NCc5cccnc5)c4n3)cc(OC(F)(F)F)c2C1=O [Example 414]
30 | – | – | 100 to 1000 | < 100 | C[C@H](N1Cc2cc(-c3ccn4nc(N)c(C(=O)NC5CC5)c4n3)cc(OC(F)(F)F)c2C1=O)C(F)(F)F [Example 415]
31 | – | – | 100 to 1000 | < 100 | Nc1nn2ccc(-c3cc4c(c(OC(F)(F)F)c3)C(=O)N([C@@H](CO)C3CC3)C4)nc2c1C(=O)NC1CC1 [Example 416]
32 | – | – | 100 to 1000 | < 100 | C[C@@H](C1CC1)N1Cc2cc(-c3ccn4nc(N)c(C(=O)Nc5ccc(C(C)(C)O)cc5)c4n3)cc(OC(F)(F)F)c2C1=O [Example 419]
33 | – | – | 100 to 1000 | < 100 | C[C@@H](C1CC1)N1Cc2cc(-c3ccn4nc(N)c(C(=O)Nc5cccc(C(C)(C)O)c5)c4n3)cc(OC(F)(F)F)c2C1=O [Example 420]
34 | – | – | 100 to 1000 | < 100 | C[C@@H](C1CC1)N1Cc2cc(-c3ccn4nc(N)c(C(=O)N[C@H]5CCCNC5)c4n3)cc(OC(F)(F)F)c2C1=O [Example 421]
35 | – | – | 100 to 1000 | < 100 | C[C@@H](C1CC1)N1Cc2cc(-c3ccn4nc(N)c(C(=O)Nc5cnccc5N)c4n3)cc(OC(F)(F)F)c2C1=O [Example 422]
36 | – | – | 100 to 1000 | < 100 | COc1ccc(NC(=O)c2c(N)nn3ccc(-c4cc5c(c(OC(F)(F)F)c4)C(=O)N([C@@H](C)C4CC4)C5)nc23)cn1 [Example 423]
37 | – | – | 100 to 1000 | < 100 | C[C@@H](C1CC1)N1Cc2cc(-c3ccn4nc(N)c(C(=O)N[C@H]5CCC[C@@H](N)C5)c4n3)cc(OC(F)(F)F)c2C1=O [Example 426]
38 | – | – | < 100 | < 100 | Cc1nn(C)cc1NC(=O)c1c(N)nn2ccc(-c3cc4c(c(OC(F)F)c3)C(=O)N([C@@H](C)C3CC3)C4)nc12 [Example 429]
39 | – | – | < 100 | < 100 | C[C@@H](C1CC1)N1Cc2cc(-c3ccn4nc(N)c(C(=O)N[C@H]5C[C@](C)(O)C5)c4n3)cc(OC(F)F)c2C1=O [Example 430]
40 | – | – | 100 to 1000 | < 100 | C[C@H](N1Cc2cc(-c3ccn4nc(N)c(C(=O)NC5CC5)c4n3)cc(N3CC[C@@H](O)C3)c2C1=O)C(F)(F)F [Example 431]
41 | – | – | 100 to 1000 | < 100 | C[C@@H](C1CC1)N1Cc2cc(-c3ccn4nc(N)c(C(=O)N[C@H]5C[C@@](C)(O)C5)c4n3)cc(N3CC[C@@H](O)C3)c2C1=O [Example 432]
42 | – | – | 100 to 1000 | < 100 | C[C@@H](C1CC1)N1Cc2cc(-c3ccn4nc(N)c(C(=O)NC5CC5)c4n3)cc(N3CC(O)C3)c2C1=O [Example 433]
43 | – | – | 100 to 1000 | < 100 | C[C@H](N1Cc2cc(-c3ccn4nc(N)c(C(=O)N[C@@H](CO)C5CC5)c4n3)cc(N3CC[C@@H](O)C3)c2C1=O)C(F)(F)F [Example 434]
44 | – | – | 100 to 1000 | < 100 | C[C@H](CO)NC(=O)c1c(N)nn2ccc(-c3cc4c(c(N5CC(F)(F)C5)c3)C(=O)N([C@@H](C)C3CC3)C4)nc12 [Example 435]
45 | – | – | 100 to 1000 | < 100 | C[C@@H](C1CC1)N1Cc2cc(-c3ccn4nc(N)c(C(=O)NC5CC5)c4n3)cc(N3CC(F)(F)C3)c2C1=O [Example 436]
46 | – | – | 100 to 1000 | < 100 | C[C@@H](C1CC1)N1Cc2cc(-c3ccn4nc(N)c(C(=O)N[C@H]5CC[C@@](C)(O)CC5)c4n3)cc(N3CCN(C)CC3)c2C1=O [Example 437]
47 | – | – | 100 to 1000 | < 100 | C[C@@H](C1CC1)N1Cc2cc(-c3ccn4nc(N)c(C(=O)Nc5cccnc5)c4n3)cc(N3CC[C@@H](O)C3)c2C1=O [Example 438]
48 | – | – | 100 to 1000 | < 100 | C[C@H](CO)NC(=O)c1c(N)nn2ccc(-c3cc4c(c(OC5CC(F)(F)C5)c3)C(=O)N([C@@H](C)C3CC3)C4)nc12 [Example 439]
49 | – | – | 100 to 1000 | < 100 | C[C@H](CO)NC(=O)c1c(N)nn2ccc(-c3cc4c(c(O[C@H](C)C(F)(F)F)c3)C(=O)N([C@@H](C)C3CC3)C4)nc12 [Example 440]
